The assay has as its system influenza virus. Nature of the assay: resistance inducing effect of CLA against viral airway infections in rats exposed intranasally to influenza virus. Particulars: rats fed 1% CLA (FFA) for 5 weeks before intranasal influenza exposure; FIG. 1. Type of assay: in vivo.

Our source for the lungweight values is patent US20030215465A1, “Use of conjugated acid derivatives” (priority 2002, published 2003).

Turning to Conjugated Linoleic Acid [CLA], the lungweight result is listed as “increased”.
